Assays:
[1] = fresh or as designated
rats = settings: subchronic

SMILES	Independent Lab Cond. [1]	NOEL (rats; bladder hyperplasia, rats)	Bladder Hyperplasia (finding) (rats; in rats >5000 ppm)
CCCCOP(=O)(OCCCC)Oc1ccccc1 [DBPP, dibutyl phenyl phosphate, reference compound]	0.008 μMHO/cm	–	–
CC(C)COP(=O)(OCC(C)C)OCC(C)C [TIBP, triisobutyl phosphate]	0.001 μMHO/cm	5000 ppm	None observed

— patent publication USRE37101E, “Stabilized phosphate ester-based functional fluid compositions” (Solutia Inc., priority 1997, dated 2001)
